Reference: patent US20180318386A1, “PEPTIDES AND METHODS OF TREATING ENDOMETRIOSIS USING THE SAME” (BIOINCEPT, LLC, priority 2014, published 2018)

Legend:
CD4+/CD25+/FoxP3+ cells = assay: FITC-PIF binding to regulatory T-cells, two- and three-color flow cytometry; assay type: cell-based, human; conditions: 0-100 uM FITC-labelled peptide
Monocytes = assay: FITC-PIF binding to mare immune cells, flow cytometry: monocytes; assay type: cell-based
Description: (§1) Method: whole blood was collected from jugular vein of pregnant (n=4) and non-pregnant (n=8) mares into lithium heparin vacutainers. Whole blood was layered over histopaque (Sigma) density gradient and red cells were allowed to settle through the gradient, leaving a leukocyte-rich plasma layer above. Cells were washed twice in sterile PBS and any remaining RBCs lysed with 0.16 M ammonium chloride solution. […] Cell types were separated based upon their scatter characteristics. […] FIG. 20 and Table 20 show mean+/−SEM in both pregnant and non-pregnant mares, and depicts binding characteristics showing significant differences between FITC-PIF and control, P<0.001.

Lymphocytes = assay: FITC-PIF binding to mare immune cells, flow cytometry: lymphocytes; assay type: cell-based
Description: as §1

Granulocytes = assay: FITC-PIF binding to mare immune cells, flow cytometry: granulocytes; assay type: cell-based
Description: as §1

[1] = Non-pregnant mares, 1 ug/ml FITC-labelled peptide (n = 8)
[2] = Non-pregnant mares, 5 ug/ml FITC-labelled peptide (n = 8)
[3] = Non-pregnant mares, 10 ug/ml FITC-labelled peptide (n = 7)
[4] = Pregnant mares, 1 ug/ml FITC-labelled peptide (n = 4)
[5] = Pregnant mares, 5 ug/ml FITC-labelled peptide (n = 4)
[6] = Pregnant mares, 10 ug/ml FITC-labelled peptide (n = 4)

GRVDPSNKSMPKDIA (scrPIF-1 (15)) [PIFscr, control]
binding to CD4+/CD25+/FoxP3+ cells (CD4+/CD25+/FoxP3+ cells): minimal binding
binding to Monocytes, Mean (Monocytes; [1]): 1.10
binding to Monocytes, Mean (Monocytes; [2]): 5.20
binding to Monocytes, Mean (Monocytes; [3]): 12.39
binding to Monocytes, Mean (Monocytes; [4]): 0.78
binding to Monocytes, Mean (Monocytes; [5]): 6.36
binding to Monocytes, Mean (Monocytes; [6]): 31.07
binding to Lymphocytes, Mean (Lymphocytes; [1]): 0.27
binding to Lymphocytes, Mean (Lymphocytes; [2]): 1.08
binding to Lymphocytes, Mean (Lymphocytes; [3]): 2.04
binding to Lymphocytes, Mean (Lymphocytes; [4]): 0.12
binding to Lymphocytes, Mean (Lymphocytes; [5]): 0.78
binding to Lymphocytes, Mean (Lymphocytes; [6]): 2.84
binding to Granulocytes, Mean (Granulocytes; [1]): 0.26
binding to Granulocytes, Mean (Granulocytes; [2]): 1.78
binding to Granulocytes, Mean (Granulocytes; [3]): 3.89
binding to Granulocytes, Mean (Granulocytes; [4]): 0.09
binding to Granulocytes, Mean (Granulocytes; [5]): 0.93
binding to Granulocytes, Mean (Granulocytes; [6]): 4.51
